According to patent US4278671A, “7-[2-(2-Aminothiazol-4-yl)-2-(syn)-methoxyiminoacetamido] cephalosporins” (Takeda Chemical Industries, Ltd., priority 1976, dated 1981):
≈ marks a conversion by molar mass, not a printed value.

Key:
E. coli = experiment: protective effect on infected mice (intraperitoneal infection with E. coli); assay type: in vivo; details: Escherichia coli, 168 h, male mice ICR/SLC, 7 days observation
Text: *Test animals: male mice (ICR/SLC) 5 mice per group per single
Infection: intraperitoneally with E. coli
Observation period: 7 days

[1] = tested on: Proteus vulgaris IFO 3988; experiment: minimal inhibitory concentration against P. vulgaris IFO 3988; assay type: cell-based; details: Proteus vulgaris, IFO3988; P. vulgaris IFO 3988; read-out: minimal inhibitory concentration
[2] = tested on: Klebsiella pneumoniae GN 3835; experiment: minimal inhibitory concentration against K. pneumoniae GN 3835; assay type: cell-based; details: Klebsiella pneumoniae, GN3835; K. pneumoniae GN 3835; read-out: minimal inhibitory concentration
P. vulgaris GN 4413 = experiment: minimal inhibitory concentration against P. vulgaris GN 4413; assay type: cell-based; details: Proteus vulgaris, GN4413
E. coli 0-111 = experiment: minimal inhibitory concentration against E. coli 0-111; assay type: cell-based, Escherichia coli; details: Escherichia coli, 0111; E. coli 0-111; read-out: minimal inhibitory concentration
[3] = tested on: Citrobacter freundii GN 99; experiment: minimal inhibitory concentration against Cit. freundii GN 99; assay type: cell-based; details: Citrobacter freundii, GN99; Cit. freundii GN 99; read-out: minimal inhibitory concentration
[4] = tested on: Proteus morganii IFO 3168; experiment: minimal inhibitory concentration against P. morganii IFO 3168; assay type: cell-based; details: Morganella morganii, IFO3168; P. morganii IFO 3168; read-out: minimal inhibitory concentration
Serratia TN 0024 = experiment: minimal inhibitory concentration against Serratia TN 0024; assay type: cell-based; details: TN0024; Serratia TN 0024; read-out: minimal inhibitory concentration
[5] = tested on: Enterobacter cloacae IFO 12937; experiment: minimal inhibitory concentration against Ent. cloacae IFO 12937; assay type: cell-based; details: Enterobacter cloacae; Ent. cloacae IFO12937; read-out: minimum inhibitory concentration
P. rettgeri 8(TN0336) = experiment: minimal inhibitory concentration against P. rettgeri 8 (TN0336); assay type: cell-based, Proteus rettgeri; details: Providencia rettgeri; P. rettgeri 8(TN0336); read-out: minimal inhibitory concentration
E. coli T-7 = experiment: minimal inhibitory concentration against E. coli T-7; assay type: cell-based; details: Escherichia coli, T7
[6] = tested on: Serratia marcescens IFO 12648; experiment: minimal inhibitory concentration against Serr. marcescens IFO 12648; assay type: cell-based; details: Serratia marcescens, IFO12648; Serr. marcescens IFO 12648; read-out: minimal inhibitory concentration
Klebsiella pneumoniae DT = experiment: minimal inhibitory concentration against K. pneumoniae DT; assay type: cell-based; details: Klebsiella pneumoniae; K. pneumoniae DT; read-out: minimal inhibitory concentration
E. coli NIHJ = experiment: minimal inhibitory concentration against E. coli NIHJ; assay type: cell-based; details: Escherichia coli
[7] = tested on: Proteus mirabilis GN 4359; experiment: minimal inhibitory concentration against P. mirabilis GN 4359; assay type: cell-based; details: Proteus mirabilis, GN4359; P. mirabilis GN 4359; read-out: minimal inhibitory concentration
Proteus rettgeri GN 4733 = experiment: minimal inhibitory concentration against P. rettgeri GN 4733; assay type: cell-based; details: Providencia rettgeri, GN4733; P. rettgeri GN 4733; read-out: minimal inhibitory concentration
[8] = tested on: Citrobacter freundii GN 1706; experiment: minimal inhibitory concentration against Cit. freundii GN 1706; assay type: cell-based; details: Citrobacter freundii, GN1706; Cit. freundii GN 1706; read-out: minimal inhibitory concentration
[9] = tested on: Acinetobacter anitratus TN-1140; experiment: minimal inhibitory concentration against Acinetobacter anitratus TN-1140; assay type: cell-based; details: Acinetobacter calcoaceticus, TN1140
Ps. aeruginosa GN3407 = experiment: minimal inhibitory concentration against Ps. aeruginosa GN3407; assay type: cell-based; details: Pseudomonas aeruginosa
Ps. aeruginosa P2 = experiment: minimal inhibitory concentration against Ps. aeruginosa P2; assay type: cell-based; details: Pseudomonas aeruginosa
Ps. aeruginosa Pd 1 = experiment: minimal inhibitory concentration against Ps. aeruginosa Pd 1; assay type: cell-based; details: Pseudomonas aeruginosa, PD1
Ent. cloacae TN1282 = experiment: minimal inhibitory concentration against Ent. cloacae TN1282; assay type: cell-based; details: Enterobacter cloacae
Ps. aeruginosa PM 3 = experiment: minimal inhibitory concentration against Ps. aeruginosa PM 3; assay type: cell-based; details: Pseudomonas aeruginosa, PM3

CO/N=C(\C(=O)NC1C(=O)N2C(C(=O)OCOC(=O)C(C)(C)C)=C(CSc3nnnn3C)CSC12)c1csc(N)n1 (centres unmarked) [Example 15]
ED50 (E. coli; oral): 0.11 mg/kg

CO/N=C(\C(=O)NC1C(=O)N2C(C(=O)O)=C(CSc3nnnn3CCN(C)C)CSC12)c1csc(N)n1 (stereo not drawn) [(e), 7-[2-(2-Aminothiazol-4-yl)-2-(syn)-methoxyiminoacetamido]-3-[1-(2-N,N-dimethylaminoethyl)-1,2,3,4-tetrazol-5-yl]thiomethyl-3-cephem-4-carboxylic acid betaine]
MIC [1]: 0.2 µg/mL (≈ 0.352 µM)
MIC [2]: 0.2 µg/mL (≈ 0.352 µM)
MIC (P. vulgaris GN 4413): 1.56 µg/mL (≈ 2.74 µM)
MIC (E. coli 0-111): 0.024 µg/mL (≈ 0.0422 µM)
MIC [3]: 0.2 µg/mL (≈ 0.352 µM)
MIC [4]: 0.2 µg/mL (≈ 0.352 µM)
MIC (Serratia TN 0024): 0.78 µg/mL (≈ 1.37 µM)
MIC [5]: 6.25 µg/mL (≈ 11 µM)
MIC (P. rettgeri 8(TN0336)): 0.024 µg/mL (≈ 0.0422 µM)
MIC (E. coli T-7): 1.56 µg/mL (≈ 2.74 µM)
MIC [6]: 1.56 µg/mL (≈ 2.74 µM)
MIC (Klebsiella pneumoniae DT): 0.1 µg/mL (≈ 0.176 µM)
MIC (E. coli NIHJ): 0.2 µg/mL (≈ 0.352 µM)
MIC [7]: 0.39 µg/mL (≈ 0.686 µM)
MIC (Proteus rettgeri GN 4733): 0.78 µg/mL (≈ 1.37 µM)
MIC [8]: 0.78 µg/mL (≈ 1.37 µM)

CO/N=C(\C(=O)NC1C(=O)N2C(C(=O)O)=C(CSc3nnc(C)s3)CSC12)c1csc(N)n1 (stereo not drawn) [(a), Sodium 7-[2-(2-aminothiazol-4-yl)-2-(syn)-methoxyiminoacetamido]-3-(2-methyl-1,3,4-thiadiazol-5-yl)thiomethyl-3-cephem-4-carboxylate]
MIC [1]: 0.1 µg/mL
MIC [2]: 0.39 µg/mL
MIC (P. vulgaris GN 4413): 1.56 µg/mL
MIC (E. coli 0-111): 0.1 µg/mL
MIC [3]: 0.2 µg/mL
MIC [4]: 0.1 µg/mL
MIC (Serratia TN 0024): 0.78 µg/mL
MIC [5]: 3.13 µg/mL
MIC (P. rettgeri 8(TN0336)): ≤ 0.012 µg/mL
MIC (E. coli T-7): 1.56 µg/mL
MIC [6]: 0.78 µg/mL
MIC (Klebsiella pneumoniae DT): 0.05 µg/mL
MIC (E. coli NIHJ): 0.2 µg/mL
MIC [7]: 0.2 µg/mL
MIC (Proteus rettgeri GN 4733): 0.39 µg/mL
MIC [8]: 0.78 µg/mL

CO/N=C(\C(=O)NC1C(=O)N2C(C(=O)O)=C(COC(C)=O)CSC12)c1csc(N)n1 (stereo not drawn) [Example 3, sodium 7-[2-(2-aminothiazol-4-yl)-2-(syn)-methoxyiminoacetamido]cephalosporanate]
MIC [1]: 0.024 µg/mL
MIC [2]: 0.05 µg/mL
MIC [9]: 25 µg/mL
MIC (P. vulgaris GN 4413): 0.78 µg/mL
MIC (E. coli 0-111): 0.05 µg/mL
MIC [3]: 0.2 µg/mL
MIC [4]: 0.2 µg/mL
MIC (Serratia TN 0024): 0.78 µg/mL
MIC (Ps. aeruginosa GN3407): 50 µg/mL
ED50 (E. coli; subcutaneous (SC)): 0.018 mg/kg
MIC (Ps. aeruginosa P2): 50 µg/mL
MIC (Ps. aeruginosa Pd 1): 25 µg/mL
MIC (P. rettgeri 8(TN0336)): ≤ 0.012 µg/mL
MIC (E. coli T-7): 0.78 µg/mL
MIC [6]: 3.13 µg/mL
MIC (Ent. cloacae TN1282): 6.25 µg/mL
MIC (Klebsiella pneumoniae DT): 0.024 µg/mL
MIC (E. coli NIHJ): 0.2 µg/mL
MIC [7]: 0.05 µg/mL
MIC (Proteus rettgeri GN 4733): 0.2 µg/mL
MIC (Ps. aeruginosa PM 3): 1.56 µg/mL
MIC [8]: 0.39 µg/mL

CO/N=C(\C(=O)NC1C(=O)N2C(C(=O)O)=C(C)CSC12)c1csc(N)n1 (stereo not drawn) [Example 5, sodium 7-[2-(2-aminothiazol-4-yl)-2-(syn)-methoxyiminoacetamido]desacetoxycephalosporanate]
MIC [1]: 0.2 µg/mL
MIC [2]: 0.2 µg/mL
MIC [9]: 12.5 µg/mL
MIC (P. vulgaris GN 4413): 1.56 µg/mL
MIC (E. coli 0-111): 0.39 µg/mL
MIC [3]: 3.13 µg/mL
MIC [4]: 12.5 µg/mL
MIC (Serratia TN 0024): 1.56 µg/mL
MIC (Ps. aeruginosa GN3407): > 100 µg/mL
ED50 (E. coli; subcutaneous (SC)): 0.111 mg/kg
MIC (Ps. aeruginosa P2): > 100 µg/mL
MIC (Ps. aeruginosa Pd 1): > 100 µg/mL
MIC (P. rettgeri 8(TN0336)): ≤ 0.012 µg/mL
MIC (E. coli T-7): 6.25 µg/mL
MIC [6]: 12.5 µg/mL
MIC (Ent. cloacae TN1282): 50 µg/mL
MIC (Klebsiella pneumoniae DT): 0.2 µg/mL
MIC (E. coli NIHJ): 0.78 µg/mL
MIC [7]: 0.1 µg/mL
MIC (Proteus rettgeri GN 4733): 0.1 µg/mL
MIC (Ps. aeruginosa PM 3): 25 µg/mL
MIC [8]: 6.25 µg/mL
